From patent publication EP3748362A1, “IN VITRO METHOD FOR DETECTING RENAL DISEASE” (Fundacion Instituto De Investigacion Sanitaria Fundacion …, priority 2019, dated 2020)

Columns and labels:
[1] = test system: TRAF3; test: Renal TRAF3 (western blot), folic acid-induced renal injury in mice; type: in vivo; conditions: folic acid 300 mg/kg model; paricalcitol 25 µg/kg/day i.p.
Procedure: (§1) All animal procedures were performed according to the guidelines of animal research in the European Community and with prior approval by the Ethics Committee of the Health Research of the IIS-Fundacion Jiménez Díaz. For in vivo studies, mice received a daily intraperitoneal injection of the VDRA Paricalcitol starting 48 hours prior to induction of kidney damage.
At the time of sacrifice, animals were anesthetized with 5 mg/kg xylazine (Rompun, Bayer AG) and 35 mg/kg ketamine (Ketolar, Pfizer) and the kidneys perfused in situ with cold saline before removal. Then, kidney portions were fixed in formalin buffer for immunohistochemistry studies or immediately frozen in liquid nitrogen for gene and protein studies.
Folic acid nephropathy is a classical model of kidney tubulointerstitial injury and inflammation that has been reported in humans. Mice received a single intraperitoneal injection of folic acid (Sigma) 300 mg/kg in 0.3 mol/l sodium bicarbonate or vehicle, and were sacrificed 48 hours later. […]
For western blot, cell (25 µg/lane) and kidney (100-150 µg/lane) protein extracts were separated on 6%-12% polyacrylamide-SDS gels under reducing conditions. […] Autoradiographs were scanned using the Gel Doc™ EZ imager and analyzed with the Image Lab 3.0 software (BioRad).

[2] = test system: TWEAK-induced renal inflammation; test: TWEAK-induced renal inflammation in mice (immunohistochemistry, real time PCR, ELISA); type: in vivo, C57BL/6 mice; conditions: TWEAK-injected mice, paricalcitol 750 ng/kg/day or SN52 0.7 mg/mouse/day
Procedure: as §1
(§2) At the time of sacrifice, animals were anesthetized with 5 mg/kg xylazine (Rompun, Bayer AG) and 35 mg/kg ketamine (Ketolar, Pfizer) and the kidneys perfused in situ with cold saline before removal. […]
(§3) Paraffin-embedded kidney sections (3 µm) were stained using conventional methods. […] For each sample (processed by duplicate in a blinded manner), the average value was obtained from the analysis of 4 fields (20X objective) as density/mm2 or percentage stained area vs total analyzed area. Data are expressed as fold increase over control mice, as mean ± SEM of 8-10 animals per group. […]
ELISA was used to evaluate levels of the chemokines CCL2 and CCL5 (eBioscience). In renal samples, total protein content was determined by the BCA method, and equal amounts of protein were analyzed. Data are expressed as n-fold increase over the mean of control levels.
Total RNA was isolated from cells and mouse kidney samples with Trizol (Invitrogen). […] The mRNA copy numbers were calculated for each sample by the instrument software using Ct value. […]

[3] = test system: renal inflammation in experimental Unilateral Ureteral Obstruction (UUO); test: Renal inflammation in unilateral ureteral obstruction (UUO) in mice; type: in vivo, C57BL/6 mice; conditions: obstructed kidneys (UUO), paricalcitol 750 ng/kg/day
Procedure: as §1, §2, §3
Total RNA was isolated from cells and mouse kidney samples with Trizol (Invitrogen). […] The mRNA copy numbers were calculated for each sample by the instrument software using Ct value. Results are expressed in copy numbers, calculated relative to unstimulated cells or control mice, after normalization against 18S.

In the case of `C[C@H](/C=C/[C@H](C)C(C)(C)O)[C@H]1CC[C@H]2/C(=C/C=C3C[C@@H](O)C[C@H](O)C3)CCC[C@]12C` [paricalcitol], the “renal TRAF3 protein levels” value [1] was “restored renal TRAF3 protein levels to values of control mice”, the “proinflammatory factors, such as CCL2, CCL5 and IL-6” value ([2]; kidney, real time PCR, ELISA) was “significantly decreased” and the “infiltrating monocytes/macrophages (F4/80+ cells), T lymphocytes (CD3+ cells)” value ([2]; kidney immunohistochemistry) was “significantly decreased”. For the same molecule, the inflammatory cell infiltration ([3]; 5 days after UUO) was “prevented” and the “increased expression of proinflammatory factors, such as CCL2, CCL5, IL6” value ([3]; real time PCR) was “prevented”.
